Experimental data taken from patent publication US11147801B2, “Methods of use for trisubstituted benzotriazole derivatives as dihydroorotate oxygenase inhibitors” (Aurigene Discovery Technologies Limited, priority 2017, dated 2021).

How the values were obtained:
AML-193 = assay: Heme line growth assay (Cell-Titer Glo), 4-day and extended 7-day; format: cell-based, human; set-up: key to Sensitivity 7-day: *: insensitive; **: intermediate; ***: sensitive
Experimental: (§1) A follow-up screen was performed on an expanded panel of cell lines of heme lineage in a 4-day growth assay. Growth was assessed by Cell-Titer Glo measurements on day 0 and day 4.
(§2) Compound 1, of which diffuse large B cell lymphoma (DLBCL) lines were particularly sensitive (8/11 or 73%). A subset of the heme lines that were of intermediate sensitivity (defined as >50% and <75% growth rate inhibition) or insensitive (defined as <50% growth rate inhibition) to compound 1 in this follow-up screen were subjected to extended growth assays to evaluate if increased treatment time modulated their sensitivity profile. Specifically, these heme lines were pretreated with Compound 1 for three days at the indicated concentrations and then re-plated for a standard 4-day growth assay in fresh media/drug.

BDCM = assay: as above; format: cell-based, human; set-up: key to Sensitivity 7-day: *: insensitive; **: intermediate; ***: sensitive
Experimental: as §1, §2

F36P = assay: as above; format: cell-based, human; set-up: key to Sensitivity 7-day: *: insensitive; **: intermediate; ***: sensitive
Experimental: as §1, §2

HEL = assay: as above; format: cell-based, human; set-up: key to Sensitivity 7-day: *: insensitive; **: intermediate; ***: sensitive
Experimental: as §1, §2

KG-1 = assay: as above; format: cell-based, human; set-up: key to Sensitivity 7-day: *: insensitive; **: intermediate; ***: sensitive
Experimental: as §1, §2

KMS12BM = assay: as above; format: cell-based, human; set-up: key to Sensitivity 7-day: *: insensitive; **: intermediate; ***: sensitive
Experimental: as §1, §2

LP1 = assay: as above; format: cell-based, human; set-up: key to Sensitivity 7-day: *: insensitive; **: intermediate; ***: sensitive
Experimental: as §1, §2

MOLP-2 = assay: as above; format: cell-based, human; set-up: key to Sensitivity 7-day: *: insensitive; **: intermediate; ***: sensitive
Experimental: as §1, §2

REC-1 = assay: as above; format: cell-based, human; set-up: key to Sensitivity 7-day: *: insensitive; **: intermediate; ***: sensitive
Experimental: as §1, §2

SUDHL4 = assay: as above; format: cell-based, human; set-up: key to Sensitivity 7-day: *: insensitive; **: intermediate; ***: sensitive
Experimental: as §1, §2

TF1 = assay: as above; format: cell-based, human; set-up: key to Sensitivity 7-day: *: insensitive; **: intermediate; ***: sensitive
Experimental: as §1, §2

THP-1 = assay: as above; format: cell-based, human; set-up: key to Sensitivity 7-day: *: insensitive; **: intermediate; ***: sensitive
Experimental: as §1, §2

U266B1 = assay: as above; format: cell-based, human; set-up: key to Sensitivity 7-day: *: insensitive; **: intermediate; ***: sensitive
Experimental: as §1, §2

GDM-1 = assay: as above; format: cell-based, human
Experimental: as §1, §2

Kasumi-3 = assay: as above; format: cell-based, human
Experimental: as §1, §2

Kasumi-6 = assay: as above; format: cell-based, human
Experimental: as §1, §2

SKNO-1 = assay: as above; format: cell-based, human
Experimental: as §1, §2

cancer lines = assay: Cell growth assays with uridine supplemented into the medium (uridine rescue); format: cell-based
Experimental: To confirm that the effects of Compound 1 in impairing cell growth/viability were due to specific inhibition of DHODH, cell growth assays were performed with varying amounts of uridine supplemented into the medium.

AML_5 tumor = assay: Patient-derived AML xenograft model AML_5; format: in vivo, CB17 SCID mice; conditions: AML 5 patient-derived xenograft, 100 mg/kg BID PO
Experimental: (§3) A screen was next performed using a small number of mice/group to assess efficacy of Compound 1 in AML and DLBCL patient-derived xenograft models. Tumor-bearing mice (n=3/group) were treated with vehicle or Compound 1 at 100 mg/kg BID PO.

DLBCL_1 tumor = assay: Patient-derived DLBCL xenograft model DLBCL_1 (triple hit); format: in vivo, CB17 SCID mice; conditions: 100 mg/kg BID PO
Experimental: as §3

[1] = tested on: AML and DLBCL patient-derived xenograft models; assay: AML and DLBCL patient-derived xenograft models (all models); format: in vivo, CB17 SCID mice; conditions: all five AML and two DLBCL patient-derived models, 100 mg/kg BID PO
Experimental: as §3

CARNAVAL = assay: Double-hit DLBCL 96-hr growth assay; format: cell-based, human
Experimental: (§4) FIG. 8 is a curve showing the relative growth rate of OCILY18, SC-1 and CARNAVAL double hit diffuse large B cell lymphoma (DLBCL) cell lines treated with various concentrations of Compound 1 for 96 hours.

OCILY18 = assay: Double-hit DLBCL 96-hr growth assay; format: cell-based, human
Experimental: as §4

SC-1 = assay: Double-hit DLBCL 96-hr growth assay; format: cell-based, human; conditions: SC-1, double-hit DLBCL
Experimental: as §4

[2] = 3 days pretreatment then 4-day growth assay
[3] = acute myeloid leukemia, 4-day growth assay

Cc1ccccc1-c1ccc(-c2cc(C(=O)O)c3c(c2)nnn3C)cc1 [Compound 1, 1-methyl-5-(2′-methyl-[1,1′-biphenyl]-4-yl)-1H-benzo[d][1,2,3]triazole-7-carboxylic Acid]
Sensitivity 7-day (AML-193; AML-193, 3 days pretreatment then 4-day growth assay): ***
Sensitivity 4-day (AML-193; AML-193, acute myeloid leukemia, 4-day growth assay): ** (intermediate)
Sensitivity 7-day (BDCM; [2]): ***
Sensitivity 4-day (BDCM; [3]): ** (intermediate)
Sensitivity 7-day (F36P; [2]): ***
Sensitivity 4-day (F36P; [3]): ** (intermediate)
Sensitivity 7-day (HEL; [2]): ***
Sensitivity 4-day (HEL; [3]): ** (intermediate)
Sensitivity 7-day (KG-1; KG-1, 3 days pretreatment then 4-day growth assay): ***
Sensitivity 4-day (KG-1; KG-1, acute myeloid leukemia, 4-day growth assay): * (insensitive)
Sensitivity 7-day (KMS12BM; [2]): ***
Sensitivity 4-day (KMS12BM; multiple myeloma, 4-day growth assay): ** (intermediate)
Sensitivity 7-day (LP1; LP1, 3 days pretreatment then 4-day growth assay): ***
Sensitivity 4-day (LP1; LP1, multiple myeloma, 4-day growth assay): * (insensitive)
Sensitivity 7-day (MOLP-2; MOLP-2, 3 days pretreatment then 4-day growth assay): ***
Sensitivity 4-day (MOLP-2; MOLP-2, multiple myeloma, 4-day growth assay): ** (intermediate)
Sensitivity 7-day (REC-1; REC-1, 3 days pretreatment then 4-day growth assay): ***
Sensitivity 4-day (REC-1; REC-1, mantle cell lymphoma, 4-day growth assay): * (insensitive)
Sensitivity 7-day (SUDHL4; SUDHL4, 3 days pretreatment then 4-day growth assay): ***
Sensitivity 4-day (SUDHL4; SUDHL4, diffuse large B cell lymphoma, 4-day growth assay): ** (intermediate)
Sensitivity 7-day (TF1; TF1, 3 days pretreatment then 4-day growth assay): ***
Sensitivity 4-day (TF1; TF1, acute myeloid leukemia, 4-day growth assay): * (insensitive)
Sensitivity 7-day (THP-1; THP-1, 3 days pretreatment then 4-day growth assay): ***
Sensitivity 4-day (THP-1; THP-1, acute myeloid leukemia, 4-day growth assay): ** (intermediate)
Sensitivity 7-day (U266B1; U266B1, 3 days pretreatment then 4-day growth assay): ***
Sensitivity 4-day (U266B1; U266B1, multiple myeloma, 4-day growth assay): * (insensitive)
Sensitivity 7-day (GDM-1; GDM-1, 3 days pretreatment then 4-day growth assay): ** (intermediate)
Sensitivity 4-day (GDM-1; GDM-1, acute myeloid leukemia, 4-day growth assay): * (insensitive)
Sensitivity 7-day (Kasumi-3; Kasumi-3, 3 days pretreatment then 4-day growth assay): * (insensitive)
Sensitivity 4-day (Kasumi-3; Kasumi-3, acute myeloid leukemia, 4-day growth assay): * (insensitive)
Sensitivity 7-day (Kasumi-6; Kasumi-6, 3 days pretreatment then 4-day growth assay): * (insensitive)
Sensitivity 4-day (Kasumi-6; Kasumi-6, acute myeloid leukemia, 4-day growth assay): * (insensitive)
Sensitivity 7-day (SKNO-1; SKNO-1, 3 days pretreatment then 4-day growth assay): ** (intermediate)
Sensitivity 4-day (SKNO-1; SKNO-1, acute myeloid leukemia, 4-day growth assay): * (insensitive)
Rescue of growth effects by exogenous uridine (cancer lines; supraphysiologic uridine (25 μM and 100 μM), up to 10 μM of compound): completely rescued
Rescue of growth effects by exogenous uridine (cancer lines; uridine close to physiologic (5 μM)): partially rescued
TGI (AML_5 tumor): > 60%
TGI (DLBCL_1 tumor): > 60%
Anti-tumor activity [1]: anti-tumor activity of Compound 1 was observed
Sensitivity to growth inhibition (CARNAVAL): highly sensitive
Sensitivity to growth inhibition (OCILY18): highly sensitive
Sensitivity to growth inhibition (SC-1): highly sensitive
